ChEMBL document CHEMBL5528017, “Design and synthesis of dual BRD4/Src inhibitors for treatment of triple-negative breast cancer” (Eur J Med Chem, 2024)
Activity calls are given as the source filed them. The calls are words filed in the database; no cut-off is given here.

What was measured:
[1] = system: MDA-MB-231; experiment: cells; conditions: Homo sapiens, MDA-MB-231, 72 h
Description: Antiproliferative activity against human MDA-MB-231 cells assessed as inhibition of cell viability incubated for 72 hrs by CCK8 assay

[2] = target: Bromodomain-containing protein 4 (Homo sapiens, UniProt O60885); experiment: Inhibition of His6-tagged recombinant BRD4 BD1 domain (44 to 168 residues) (unknown origin) expressed in Escherichia coli BL21(DE3) incubated for 0.5 hrs by FITC-labeled JQ1 based competitive fluorescence polarization assay
[3] = system: MDA-MB-231; experiment: Antitumor activity against human MDA-MB-231 cells xenografted in NOD-SCID mouse assessed as inhibition of tumor growth at 30 mg/kg, ip administered 5 days per week for 27 days; type: functional; conditions: time 27 day
[4] = system: MDA-MB-231; experiment: Induction of cell cycle arrest in human MDA-MB-231 cells assessed as increase in p21 expression at 0.1 uM incubated for 24 hrs by western blot analysis; type: functional, cell-based
[5] = system: MDA-MB-231; experiment: Induction of cell cycle arrest in human MDA-MB-231 cells assessed as proportion of cells at S phase at 0.1 uM incubated for 24 hrs by propidium iodide staining based flow cytometry (reference value: 28.2%); type: functional
[6] = system: MDA-MB-231; experiment: Induction of cell cycle arrest in human MDA-MB-231 cells assessed as proportion of cells at G2 phase at 0.1 uM incubated for 24 hrs by propidium iodide staining based flow cytometry (reference value: 11.6%); type: functional
[7] = system: MDA-MB-231; experiment: Inhibition of cell migration in human MDA-MB-231 cells at 0.05 uM incubated for 12 hrs by wound healing assay; type: functional, cell-based
[8] = system: MDA-MB-231; experiment: Induction of cell cycle arrest in human MDA-MB-231 cells assessed as downregulation of cyclin B1 expression at 0.1 uM incubated for 24 hrs by western blot analysis; type: functional, cell-based
[9] = system: MDA-MB-231; experiment: Induction of cell cycle arrest in human MDA-MB-231 cells assessed as proportion of cells at G1 phase at 0.1 uM incubated for 24 hrs by propidium iodide staining based flow cytometry (reference value: 59.5%); type: functional
[10] = system: MDA-MB-231; experiment: Induction of apoptosis in human MDA-MB-231 cells assessed as proportion of viable cells at 0.5 uM incubated for 36 hrs by AnnexinV-FITC/PI staining based flow cytometry (reference value: 93.6%); type: functional
[11] = system: MDA-MB-231; experiment: Induction of apoptosis in human MDA-MB-231 cells assessed as proportion of necrotic cells at 0.5 uM incubated for 36 hrs by AnnexinV-FITC/PI staining based flow cytometry (reference value: 0%); type: functional
[12] = system: MDA-MB-231; experiment: Induction of apoptosis in human MDA-MB-231 cells assessed as proportion of late apoptotic cells at 0.5 uM incubated for 36 hrs by AnnexinV-FITC/PI staining based flow cytometry (reference value: […]%); type: functional
[13] = system: MDA-MB-231; experiment: Inhibition of cell invasion in human MDA-MB-231 cells assessed as decrease in number of invading cells at 0.1 uM incubated for 16 hrs by matrigel coated transwell assay; type: functional, cell-based
[14] = system: MDA-MB-231; experiment: Induction of apoptosis in human MDA-MB-231 cells assessed as proportion of early apoptotic cells at 0.5 uM incubated for 36 hrs by AnnexinV-FITC/PI staining based flow cytometry (reference value: 5.05%); type: functional
[15] = system: MDA-MB-231; experiment: Induction of cell cycle arrest in human MDA-MB-231 cells assessed as […] in cyclin D1 expression at 0.1 uM incubated for 24 hrs by western blot analysis; type: functional, cell-based
[16] = system: A549; experiment: Antiproliferative activity against human A549 cells assessed as inhibition of cell viability incubated for 3 to 4 days by CCK8 assay; type: functional, cell-based; conditions: time 3-4 day
[17] = system: MDA-MB-231; experiment: Antitumor activity against human MDA-MB-231 cells xenografted in NOD-SCID mouse assessed as inhibition of tumor growth at 30 mg/kg, po administered 5 days per week for 27 days; type: functional; conditions: MDA-MB-231, 648 h, time 27 day, read-out: TGI
[18] = system: MCF7; experiment: Antiproliferative activity against human MCF7 cells assessed as inhibition of cell viability incubated for 3 to 4 days by CCK8 assay; type: functional, cell-based; conditions: time 3-4 day
[19] = system: MDA-MB-231; experiment: Induction of cell cycle arrest in human MDA-MB-231 cells assessed as decrease in cyclin D1 expression at 0.1 uM incubated for 24 hrs by western blot analysis; type: functional, cell-based
[20] = system: CWR22R; experiment: Antiproliferative activity against human 22Rv1 cells assessed as inhibition of cell viability incubated for 3 to 4 days by CCK8 assay; type: functional, cell-based; conditions: time 3-4 day

Question: With `Cc1nc(Nc2ncc(C(=O)Nc3c(C)cccc3Cl)s2)cc(N2CCN(CCOC(=O)CNC(=O)C[C@@H]3N=C(c4ccc(Cl)cc4)c4c(sc(C)c4C)-n4c(C)nnc43)CC2)n1` as the compound, how does the IC50 [1] read?
Answer: Its IC50 is 22 nM.

Question: Which IC50 [1] does the source give for `Cc1nc(Nc2ncc(C(=O)Nc3c(C)cccc3Cl)s2)cc(N2CCN(CCOC(=O)[C@H](Cc3c[nH]c4ccccc34)NC(=O)C[C@@H]3N=C(c4ccc(Cl)cc4)c4c(sc(C)c4C)-n4c(C)nnc43)CC2)n1` here?
Answer: Its IC50 is 95 nM.

Question: How did the IC50 [1] turn out when `Cc1nc(Nc2ncc(C(=O)Nc3c(C)cccc3Cl)s2)cc(N2CCN(C(=O)CCCCCCCNC(=O)C[C@@H]3N=C(c4ccc(Cl)cc4)c4c(sc(C)c4C)-n4c(C)nnc43)CC2)n1` was run?
Answer: The IC50 was 757 nM.

Question: `Cc1nc(Nc2ncc(C(=O)Nc3c(C)cccc3Cl)s2)cc(N2CCN(C(=O)C[C@@H]3N=Cc4c(sc(C)c4C)-n4c(C)nnc43)CC2)n1` was tested. Which IC50 [1] did it give?
Answer: The IC50 was 980 nM.

Question: Which IC50 [1] does the source give for `Cc1nc(Nc2ncc(C(=O)Nc3c(C)cccc3Cl)s2)cc(N2CCN(CCOC(=O)CCOCCOCCOCCNC(=O)C[C@@H]3N=C(c4ccc(Cl)cc4)c4c(sc(C)c4C)-n4c(C)nnc43)CC2)n1` here?
Answer: The IC50 was 167 nM.

Question: What does the source list for `Cc1nc(Nc2ncc(C(=O)Nc3c(C)cccc3Cl)s2)cc(N2CCN(C(=O)[C@@H]3CCCCN3C(=O)C[C@@H]3N=C(c4ccc(Cl)cc4)c4c(sc(C)c4C)-n4c(C)nnc43)CC2)n1`?
Answer: IC50 [1]: 5000 nM; IC50 [2]: > 1000 nM

Question: `Cc1nc(Nc2ncc(C(=O)Nc3c(C)cccc3Cl)s2)cc(N2CCN(CCOC(=O)[C@H](CC(C)C)NC(=O)C[C@@H]3N=C(c4ccc(Cl)cc4)c4c(sc(C)c4C)-n4c(C)nnc43)CC2)n1` was tested. Which IC50 [1] did it give?
Answer: The IC50 was 240 nM.

Question: What does the source list for `Cc1sc2c(c1C)C(c1ccc(Cl)cc1)=N[C@@H](CC(=O)OC(C)(C)C)c1nnc(C)n1-2`?
Answer: TGI [3]: 63.6%; Activity [4]: Active; Activity [5]: 17.5%; Activity [6]: 8.53%; inhibition [7]: Active; IC50 [1]: 896 nM; Activity [8]: Active; Activity [9]: 73.3%; Activity [10]: 83.8%; Activity [11]: 0%; Activity [12]: 2.9%; inhibition [13]: inactive; Activity [14]: 13.3%; Activity [15]: Active

Question: `Cc1nc(Nc2ncc(C(=O)Nc3c(C)cccc3Cl)s2)cc(N2CCN(CCOC(=O)[C@@H]3CCCCN3C(=O)C[C@@H]3N=C(c4ccc(Cl)cc4)c4c(sc(C)c4C)-n4c(C)nnc43)CC2)n1` was tested. Which IC50 [1] did it give?
Answer: Its IC50 is 240 nM.

Question: And the IC50 [2]?
Answer: Its IC50 is > 1000 nM.

Question: With `Cc1nc(Nc2ncc(C(=O)Nc3c(C)cccc3Cl)s2)cc(N2CCN(CCOC(=O)[C@@H]3CCCN3C(=O)C[C@@H]3N=C(c4ccc(Cl)cc4)c4c(sc(C)c4C)-n4c(C)nnc43)CC2)n1` as the compound, how does the IC50 [1] read?
Answer: Its IC50 is 135 nM.

Question: `Cc1nc(Nc2ncc(C(=O)Nc3c(C)cccc3Cl)s2)cc(N2CCN(CCOC(=O)[C@H](CC(=O)OC(C)(C)C)NC(=O)C[C@@H]3N=C(c4ccc(Cl)cc4)c4c(sc(C)c4C)-n4c(C)nnc43)CC2)n1` was tested. Which IC50 [1] did it give?
Answer: The IC50 was 122 nM.

Question: How did the IC50 [1] turn out when `Cc1nc(Nc2ncc(C(=O)Nc3c(C)cccc3Cl)s2)cc(N2CCN(CCOC(=O)C[C@@H]3N=C(c4ccc(Cl)cc4)c4c(sc(C)c4C)-n4c(C)nnc43)CC2)n1` was run?
Answer: The IC50 was 52 nM.

Question: How did the IC50 [1] turn out when `Cc1nc(Nc2ncc(C(=O)Nc3c(C)cccc3Cl)s2)cc(N2CCN(CCOC(=O)CCCCCNC(=O)C[C@@H]3N=C(c4ccc(Cl)cc4)c4c(sc(C)c4C)-n4c(C)nnc43)CC2)n1` was run?
Answer: Its IC50 is 1080 nM.

Question: How did the IC50 [1] turn out when `CSCC[C@H](NC(=O)C[C@@H]1N=C(c2ccc(Cl)cc2)c2c(sc(C)c2C)-n2c(C)nnc21)C(=O)OCCN1CCN(c2cc(Nc3ncc(C(=O)Nc4c(C)cccc4Cl)s3)nc(C)n2)CC1` was run?
Answer: Its IC50 is 58 nM.

Question: Which IC50 [1] does the source give for `Cc1nc(Nc2ncc(C(=O)Nc3c(C)cccc3Cl)s2)cc(N2CCN(C(=O)CCCCCNC(=O)C[C@@H]3N=C(c4ccc(Cl)cc4)c4c(sc(C)c4C)-n4c(C)nnc43)CC2)n1` here?
Answer: Its IC50 is 300 nM.

Question: How did the IC50 [1] turn out when `Cc1nc(Nc2ncc(C(=O)Nc3c(C)cccc3Cl)s2)cc(N2CCN(CCOC(=O)[C@H](Cc3ccccc3)NC(=O)C[C@@H]3N=C(c4ccc(Cl)cc4)c4c(sc(C)c4C)-n4c(C)nnc43)CC2)n1` was run?
Answer: The IC50 was 197 nM.

Question: `Cc1nc(Nc2ncc(C(=O)Nc3c(C)cccc3Cl)s2)cc(N2CCN(CCOC(=O)C(NC(=O)C[C@@H]3N=C(c4ccc(Cl)cc4)c4c(sc(C)c4C)-n4c(C)nnc43)C(C)C)CC2)n1` (some centres not stated) was tested. Which IC50 [1] did it give?
Answer: The IC50 was 172 nM.

Question: Which results are given for `CC[C@H](C)[C@H](NC(=O)C[C@@H]1N=C(c2ccc(Cl)cc2)c2c(sc(C)c2C)-n2c(C)nnc21)C(=O)OCCN1CCN(c2cc(Nc3ncc(C(=O)Nc4c(C)cccc4Cl)s3)nc(C)n2)CC1`?
Answer: IC50 [1]: 340 nM; IC50 [2]: > 1000 nM

Question: Which IC50 [1] does the source give for `Cc1nc(Nc2ncc(C(=O)Nc3c(C)cccc3Cl)s2)cc(N2CCN(C(=O)CCCNC(=O)C[C@@H]3N=C(c4ccc(Cl)cc4)c4c(sc(C)c4C)-n4c(C)nnc43)CC2)n1` here?
Answer: The IC50 was 1330 nM.

Question: How did the Activity [16] turn out when `Cc1nc(Nc2ncc(C(=O)Nc3c(C)cccc3Cl)s2)cc(N2CCN(CCO)CC2)n1` [DASATINIB ANHYDROUS] was run?
Answer: Its Activity is “Active”.

Question: What about the Activity [4] of the same compound?
Answer: The Activity was “Active”.

Question: What about the inhibition in vivo at 30 mg/kg [17] of the same compound?
Answer: The inhibition in vivo at 30 mg/kg was 44.7%.

Question: And the Activity [5]?
Answer: Its Activity is 15.8%.

Question: And the Activity [6]?
Answer: Its Activity is 7.75%.

Question: And the Activity [18]?
Answer: The Activity was “Active”.

Question: And the inhibition [7]?
Answer: Its inhibition is “Active”.

Question: What about the IC50 [1] of the same compound?
Answer: The IC50 was 157 nM.

Question: And the Activity [8]?
Answer: Its Activity is “Active”.

Question: And the Activity [19]?
Answer: The Activity was “Active”.

Question: What about the Activity [9] of the same compound?
Answer: The Activity was 74.5%.

Question: And the Activity [10]?
Answer: Its Activity is 80.9%.

Question: What about the Activity [11] of the same compound?
Answer: The Activity was 0.002%.

Question: What about the Activity [20] of the same compound?
Answer: The Activity was “Active”.

Question: What about the Activity [12] of the same compound?
Answer: The Activity was 4.45%.

Question: And the inhibition [13]?
Answer: The inhibition was “Active”.

Question: What about the Activity [14] of the same compound?
Answer: The Activity was 14.6%.
